Converted amounts (≈) assume the structure as drawn. Starred links: 1 amine or outer side, 2 acyl side, 3 side chain; linkers in the order of their positions; H or OH if unused. Positions of bridges follow the written chain, without caps; N, C: chain ends. Non-standard residues stand in square brackets, D forms with d. Residues, ends and D or L forms follow the SMILES beside them. Chains are numbered I, II in the order given. Actinocin(1to9) = Cc1c2oc3c(C)ccc(C(=O)[*:2])c3nc-2c(C(=O)[*:1])c(N)c1=O; X1 = CCC(N[*:1])C(C)C(=O)O[C@H](C(=O)[*:2])[C@@H](C)CC; X2 = C[C@H](N[*:1])C(=O)C(C)(C)C(=O)[*:2]; NMeY = CN[C@@H](Cc1ccc(O)cc1)C(=O)O; NMeI = CC[C@H](C)[C@H](NC)C(=O)O; NMeV = CN[C@H](C(=O)O)C(C)C; Sar = CNCC(=O)O
What was measured:
[1] = test system: NCI-H460; assay: Cytotoxicity against human NCIH460 cells assessed as concentration required for 50% inhibition; format: functional
[2] = test system: BXPC-3; assay: Cytotoxicity against human BXPC3 cells assessed as concentration required for 50% inhibition; format: functional
[3] = test system: MCF7; assay: Cytotoxicity against human MCF7 cells assessed as concentration required for 50% inhibition; format: functional
[4] = test system: SF-268; assay: Cytotoxicity against human SF268 cells assessed as concentration required for 50% inhibition; format: functional
[5] = test system: DU-145; assay: Cytotoxicity against human DU145 cells assessed as concentration required for 50% inhibition; format: functional
[6] = test system: KM-20L2; assay: Cytotoxicity against human KM20L2 cells assessed as concentration required for 50% inhibition; format: functional
[7] = test system: OVCAR-3; assay: Cytotoxicity against human OVCAR-3 cells assessed as concentration required for 50% inhibition; format: functional
[8] = test system: P388; assay: Cytotoxicity against mouse P388 cells assessed as concentration required for 50% inhibition; format: functional
[9] = test system: SF-295; assay: Cytotoxicity against human SF295 cells assessed as concentration required for 50% inhibition; format: functional
[10] = test system: A549; assay: Cytotoxicity against human A549 cells; format: functional, cell-based
[11] = test system: HeLa; assay: Cytotoxicity against human HeLa cells; format: functional, cell-based
[12] = test system: HL-60; assay: Cytotoxicity against human HL60 cells; format: functional, cell-based
[13] = test system: Mycobacterium tuberculosis; assay: Antibacterial activity against Mycobacterium tuberculosis; format: functional
[14] = test system: Vero; assay: Cytotoxicity against african green monkey Vero cells; format: functional, cell-based; settings: Chlorocebus sabaeus
[15] = test system: A498; assay: Cytotoxicity against human A498 cells assessed as concentration required for 50% inhibition; format: functional
[16] = test system: SK-MEL-5; assay: Cytotoxicity against human SK-MEL-5 cells assessed as concentration required for 50% inhibition; format: functional

SMILES	Activity [1] [µg/mL]	Activity [2] [µg/mL]	Activity [5] [µg/mL]	Activity [6] [µg/mL]	Activity [7] [µg/mL]	Activity [8] [µg/mL]	Activity [9] [µg/mL]	other results
O=c1c(-c2ccc(O)cc2)coc2cc(O)ccc12 [DAIDZEIN]	>10	6.2	7.3	8.8				Activity [3]: 5.1 µg/mL; Activity [4]: 4.4 µg/mL
CC[C@H]1CN2CCc3cc(OC)c(OC)cc3[C@@H]2C[C@@H]1C[C@H]1NCCc2cc(O)c(OC)cc21 [CEPHAELINE]	0.022	0.024	0.0098	0.022	0.032	0.0027	0.018	
COc1cc([C@@H]2c3cc4c(c(O[C@@H]5O[C@H](CO)[C@@H](O)[C@H](O)[C@H]5O)c3C[C@H]3COC(=O)[C@@H]32)OCO4)cc(OC)c1OC	0.28	>1	>1	>1	0.85	0.21	0.27	
CCCCCCCCCCCCCC(=O)O[C@H]1CC[C@H](NC(=O)[C@H](OC)[C@H](O)[C@@H](O)[C@H](O)/C=C/C(C)C)C(=O)NC1 [BENGAMIDE A]	0.00054	0.027	0.0056	0.0049	0.01	0.12	0.001	
NC1=N/C(=C2/CCNC(=O)c3[nH]ccc32)C(=O)N1 [DEBROMOHYMENIALDISINE]						5		
C[C@H]1CCC/C=C/[C@@H]2C[C@H](O)C[C@H]2[C@H](O)/C=C/C(=O)O1 [BREFELDIN A]	0.28	0.07	0.13	0.022	0.041	0.23	0.38	Activity [3]: 0.047 µg/mL; Activity [4]: 0.21 µg/mL
C\C(=C/C=C/C(C)=C1/C(=O)C[C@H]2[C@@]3(C)CCC(=O)C(C)(C)[C@@H]3CC[C@]12C)c1ccc(C)c(=O)o1 [STELLETIN A]		0.078				0.012		Activity [3]: 0.752 µg/mL
CCCCCCCCCCCCCC(=O)O[C@@H](c1cnco1)c1nc([C@@H](O)C[C@@H](O)[C@@H](O)[C@@H](C)O)co1 [BENGAZOLE A]	0.21	0.14	0.15	0.0031	0.28	0.14	0.19	
COc1cc([C@@H]2c3cc4c(cc3C[C@H]3COC(=O)[C@@H]32)OCO4)cc(OC)c1OC [DESOXYPODOPHYLLOTOXIN]	0.0018	0.00044	0.0017	0.0014	0.0027	0.029	0.00056	
CC(C)CCCCCCCCCCCC(=O)O[C@@H](c1cnco1)c1nc([C@@H](O)C[C@@H](O)[C@@H](O)[C@@H](C)O)co1 [BENGAZOLE B]	0.2	0.18	0.15	0.33	0.37	0.053	0.19	
NC1=NC(=O)/C(=C2\CCNC(=O)c3[nH]c(Br)cc32)N1 [HYMENIALDISINE]						2.4		
Cc1c2oc3c(C)ccc(C(=O)N[C@@H]4C(=O)N[C@H](C(C)C)C(=O)N5CCC[C@H]5C(=O)N(C)CC(=O)N(C)[C@@H](C(C)C)C(=O)O[C@@H]4C)c3nc-2c(C(=O)N[C@@H]2C(=O)N[C@H](C(C)C)C(=O)N3CCC[C@H]3C(=O)N(C)CC(=O)N(C)[C@@H](C(C)C)C(=O)O[C@@H]2C)c(N)c1=O [DACTINOMYCIN] (I: T[dV]P[Sar][NMeV] / II: T[dV]P[Sar][NMeV]; ester I:1-I:C, II:1-II:C; linker I:N-II:N via Actinocin(1to9))						<0.001		
COc1cc([C@H]2c3cc4c(cc3C[C@H]3COC(=O)[C@H]32)OCO4)cc(OC)c1OC [ISOPICRODEOXYPODOPHYLLOTOXIN]						<0.01		
COc1cc([C@@H]2c3cc4c(c(O)c3C[C@H]3COC(=O)[C@@H]32)OCO4)cc(OC)c1OC [BETA-PELTATIN A]	0.00077	0.0012	0.0021	0.0076	0.00055	0.0031	0.0004	
CS[C@@H]1[C@H]2C(=O)N(C)[C@@H](C(C)C)C(=O)OC[C@@H](NC(=O)c3cnc4ccccc4n3)C(=O)N[C@@H](C)C(=O)N(C)[C@@H](C[S+]1[O-])C(=O)N(C)[C@@H](C(C)C)C(=O)OC[C@@H](NC(=O)c1cnc3ccccc3n1)C(=O)N[C@@H](C)C(=O)N2C (stereo partly specified)								IC50 [10]: 0.2 µg/mL (≈ 0.179 µM); IC50 [11]: 0.2 µg/mL (≈ 0.179 µM); IC50 [12]: 0.2 µg/mL (≈ 0.179 µM)
CCCCCCCCCCCCCCC(=O)O[C@@H](c1cnco1)c1nc([C@@H](O)C[C@@H](O)[C@@H](O)[C@@H](C)O)co1 [BENGAZOLE E]	0.14	0.081	0.11	0.18	0.16	0.074	0.13	
CS[C@H]1SC[C@H]2C(=O)N(C)[C@@H](C(C)C)C(=O)OC[C@@H](NC(=O)c3cnc4ccccc4n3)C(=O)N[C@@H](C)C(=O)N(C)[C@@H]1C(=O)N(C)[C@@H](C(C)C)C(=O)OC[C@@H](NC(=O)c1cnc3ccccc3n1)C(=O)N[C@@H](C)C(=O)N2C [ECHINOMYCIN]						0.00147		
C/C1=C\[C@H](C)C[C@H](C)OC(=O)C[C@H](c2ccc(O)cc2)NC(=O)[C@@H](Cc2c(Br)[nH]c3ccccc23)N(C)C(=O)[C@H](C)NC(=O)[C@@H](C)C1 [JASPAMIDE]						0.008		
CC[C@H](C)[C@@H]1NC(=O)[C@H](CC(C)C)NC(=O)[C@@H]2CCCN2C(=O)[C@H](C(C)C)NC(=O)[C@H](Cc2ccc(O)cc2)NC(=O)[C@@H]2CCCN2C(=O)[C@@H]2CCCN2C(=O)[C@H](CC(C)C)NC1=O [AXINASTATIN 5] (cyclo(ILPPYVPL))	0.82	0.68	0.87	0.28		1.9		Activity [3]: 1.4 µg/mL; Activity [4]: 1.8 µg/mL
Cl.O[C@]12C=C(c3nccc4c3[nH]c3ccccc34)[C@@H]3CCN(CCCC/C=C\CC1)C[C@@]31C[C@@H]3/C=C\CCCCN3[C@H]12 [MANZAMINE A HCL]	0.36	0.35	0.6	0.37		0.0067		Activity [13]: 99%; MIC ([13]; Mycobacterium tuberculosis): 6.25 µg/mL; Activity [3]: 0.41 µg/mL; Activity [4]: 0.42 µg/mL; IC50 [14]: 1.7 µg/mL
COc1c(C)c2c(c(O)c1C/C=C(C)/C=C/C(=O)O)C(=O)OC2						0.11		
CCC1NC(=O)[C@H](C)NC(=O)C(C)(C)C(=O)[C@H](C)NC(=O)[C@H](Cc2ccc(OC)cc2)N(C)C(=O)[C@H](C(C)C)N(C)C(=O)CNC(=O)[C@H]([C@@H](C)CC)N(C)C(=O)CNC(=O)[C@H]([C@@H](C)CC)OC(=O)C1C (stereo partly specified) [MAJUSCULAMIDE C] (cyclo(A[X1]G[NMeI]G[NMeV][NMeY](Me)[X2]))	0.0032			0.0013	0.51		0.13	Activity [15]: 0.058 µg/mL; Activity [16]: 0.0068 µg/mL
C[C@H]1[C@H](C)CC[C@]2(C(=O)O)CC[C@]3(C)C(=CC[C@@H]4[C@@]5(C)CC[C@H](O)C(C)(C)[C@@H]5CC[C@]43C)[C@H]12 [URSOLIC ACID]						>1		
CC(/C=C/C=C(\C)c1ccc(C)c(=O)o1)=C1/C(=O)C[C@H]2[C@@]3(C)CCC(=O)C(C)(C)[C@@H]3CC[C@]12C [STELLETTIN B]						0.037		
N#Cc1cn([C@@H]2O[C@H](CO)[C@@H](O)[C@H]2O)c2ncnc(N)c12 [TOYOCAMYCIN]						0.0023		
O=c1c(-c2ccc(O)cc2)coc2cc(O)cc(O)c12 [GENISTEIN]	1.5	2.5	1.9	3.7				Activity [3]: 2.5 µg/mL; Activity [4]: 1.7 µg/mL
